{
  "source": "patent US10632209B2",
  "about": "“ASH1L inhibitors and methods of treatment therewith” (The Regents of the University of Michigan, priority 2017, dated 2020)",
  "key": {"MV4;11 cells": {"system": "MV4;11 cells", "assay": "Differentiation of MV4;11 cells (Cytospin/Wright-Giemsa staining)", "assay_type": "cell-based, Human", "conditions": "7 days of treatment", "description": "Cytospin/Wrigtht-Giemsa Staining\n1×10^5 of MV4;11 cells treated with compounds or DMSO were harvested and placed in a Shandon EZ Single Cytofunnel (Thermo Fisher). Samples were centrifuged at 600 rpm for 5 min. The slides were air dried before staining with a Hema-3 kit (Thermo Fisher)."}, "[1]": {"system": "MLL fusion target genes (HOXA genes, MEIS1, MEF2C), MNDA", "assay": "Quantitative RT-PCR of MLL fusion target genes and MNDA", "assay_type": "cell-based", "conditions": "dose-dependent manner", "description": "Total RNA was extracted from cells using the RNeasy mini kit (QIAGEN), and then 100-2000 ng of total RNA was reverse transcribed using the High Capacity cDNA Reverse Transcription Kit (Applied Biosystems) according to the manufacturer's protocol. Real-time PCR was performed using a CFX96 Real-Time PCR Detection System (Biorad). TaqMan Gene Expression Master Mix and TaqMan Gene Expression Assays were purchased from Thermo Fisher. Relative quantification of each gene transcript was carried out using the ΔΔCt method as described in the Biorad Real-Time PCR Applications Guide."}, "KOPN8": {"system": "KOPN8", "assay": "MTT cell viability assay, KOPN8", "assay_type": "cell-based, Human", "conditions": "KOPN8, 14 days of treatment", "description": "(§1) Human leukemia cells were plated at 1×10^5 cells/ml in 24-well plates, treated with 0.25% DMSO or compounds and cultured at 37° C. for 7-14 days. Every four days, the volume corresponding to 1×10^5 cells of DMSO-treated cells was spun down and resuspended in fresh media with fresh compound. At day 0 and each four day interval, 100 μl aliquots of the cell suspension were transferred to 96-well plates in quadruplicates. The quadruplicate samples were incubated for 4 days at 37° C., and then an MTT cell proliferation assay kit (Roche) was used to measure viable cells. Absorbance was read at 570 nm using a PHERAstar (BMG) microplate reader."}, "MOLM13": {"system": "MOLM13", "assay": "MTT cell viability assay, MOLM13", "assay_type": "cell-based, Human", "conditions": "MOLM13, 14 days of treatment", "description": "as §1"}, "[2]": {"system": "normal human hematopoietic hCD34+ cells", "assay": "Toxicity to normal hematopoietic hCD34+ cells", "assay_type": "cell-based"}, "MV4;11": {"system": "MV4;11", "assay": "MTT cell viability assay, MV4;11", "assay_type": "cell-based, Human", "conditions": "MV4;11, 14 days of treatment", "description": "as §1"}, "SEM cells": {"system": "SEM cells", "assay": "MTT cell viability assay, SEM", "assay_type": "cell-based, Human", "conditions": "14 days of treatment", "description": "as §1"}, "K562 (CML cell line)": {"system": "K562 (CML cell line)", "assay": "MTT cell viability assay, K562 control cell line", "assay_type": "cell-based, Human", "conditions": "14 days of treatment", "description": "as §1"}, "[3]": {"target": "T1, ASH1L SET-BAH construct (amino acids 2069-2833) (Homo sapiens, UniProt Q9NR48)", "T1 construct": "ASH1L SET-BAH construct (amino acids 2069-2833); His tag (implied only by nickel-NTA purification); made in house; host or cells: E. coli BL21(DE3) T1R", "assay": "ASH1L histone methyltransferase (HMT) assay", "assay_type": "biochemical", "conditions": "read-out: IC50 value measured in histone methyltransferase (HMT) assay", "description": "ASH1L SET protein was expressed as MOCR fusion proteins in E. coli BL21(DE3) T1R cells at 22° C. Transformed cells were lysed in buffer A containing 50 mM Tris (pH 7.5), 500 mM NaCl, 1 mM tris(2-carboxyethyl)phosphine (TCEP), and 20 mM imidazole. Cell debris was pelleted by centrifugation, and the supernatant was loaded on a column packed with nickel-nitrilotriacetic acid beads. The column was washed with buffer A and protein eluted with a 100 mL linear gradient up to buffer A containing 500 mM imidazole. The MOCR tag was cleaved with tobacco etch virus (TEV) protease during overnight dialysis against 50 mM Tris (pH 7.5), 100 mM NaCl, and 1 mM TCEP. Cleaved ASH1L was isolated from MOCR by repeating the nickel column purification and collecting ASH1L in the flow-through and low-imidazole fractions. ASH1L was further purified by gel filtration chromatography using a Superdex-75 column running in buffer B containing 50 mM Tris (pH 7.5), 100 mM NaCl, and 1 mM TCEP. ASH1L SET-PHD and SET-BAH proteins were purified similarly, with the following differences. […]\nChicken mono/dinucleosomes (HMT-35-179), chicken oligo nucleosomes (HMT-35-177), and HeLa nucleosomes (HMT-35-123) were purchased from Reaction Biology. […] The P81 squares were then dried for 1 h, added to 10 mL of Ultima Gold scintillation cocktail (PerkinElmer), and analyzed using a Beckman scintillation counter."}, "[4]": {"system": "MV4;11 xenotransplantation mouse models of MLL leukemia", "assay": "MV4;11 xenotransplantation mouse model of MLL leukemia", "assay_type": "in vivo, mice", "conditions": "i.p.", "description": "Immunocompromised 8-10 week-old female NSG mice were used for in vivo efficacy studies in accordance with IACUC guidelines. Luciferase expressing human MV4;11 leukemia cells (MV4;11-luc) were engrafted intravenously via tail vein injection (1×10^7 cells/animal). Five days after transplantation mice were randomly assigned to a vehicle control or a compound treatment group (6-7 animals per group). […] Body weight was measured daily, while mean luminescence signal was measured at days 6, 13 and 19 post-transplantation in all mice. […]"}},
  "data": [
    {"compound": "CC1CN(S(C)(=O)=O)CCC1n1cc(-c2cccc(C(N)=S)c2)c2ccc(N)cc21", "note": "(centres unmarked) [Compound 22]", "values": [
      {"measurement": "differentiation in MV4;11 cells", "setting": "MV4;11 cells", "value": "induces differentiation"},
      {"measurement": "expression level of MNDA differentiation marker", "setting": "[1]", "value": "increase the expression level"},
      {"measurement": "expression of MLL fusion target genes (HOXA genes, MEIS1, MEF2C)", "setting": "[1]", "value": "downregulates expression"},
      {"measurement": "growth inhibition / proliferation, MTT assay", "setting": "KOPN8", "value": "growth inhibition"},
      {"measurement": "growth inhibition / proliferation, MTT assay", "setting": "MOLM13", "value": "growth inhibition"},
      {"measurement": "toxicity to normal human hematopoietic hCD34+ cells", "setting": "[2]", "value": "not toxic"}
    ]},
    {"compound": "CC(C)S(=O)(=O)N1CCC(n2cc(-c3cccc(C(N)=S)c3)c3ccc(CNc4nnc(N)s4)cc32)CC1", "note": "[Compound 34]", "values": [
      {"measurement": "proliferation, MTT cell viability assay", "setting": "MV4;11", "value": "inhibits proliferation"},
      {"measurement": "proliferation, MTT cell viability assay", "setting": "SEM cells", "value": "inhibits proliferation"},
      {"measurement": "growth inhibition / proliferation, MTT assay", "setting": "KOPN8", "value": "inhibits proliferation"},
      {"measurement": "proliferation, MTT cell viability assay", "setting": "K562 (CML cell line)", "value": "but not control cell line K562"},
      {"measurement": "growth inhibition / proliferation, MTT assay", "setting": "MOLM13", "value": "inhibits proliferation"}
    ]},
    {"compound": "COCCC(=O)Nc1ccc2c(-c3cccc(C(N)=S)c3)cn(C3CCN(S(C)(=O)=O)CC3)c2c1", "note": "[Compound 37]", "values": [
      {"measurement": "IC50", "setting": "[3]", "value": 750, "unit": "nM"}
    ]},
    {"compound": "Cl.NC(=S)c1cccc(-c2cn(C3CCN(S(=O)(=O)C(F)(F)F)CC3)c3cc(CNC(=O)C4CNC4)ccc23)c1", "note": "[Compound 59, N-((3-(3-carbamothioylphenyl)-1-(1-((trifluoromethyl)sulfonyl)piperidin-4-yl)-1H-indol-6-yl)methyl)azetidine-3-carboxamide hydrochloride salt]", "values": [
      {"measurement": "leukemia progression, bioluminescence level in mice", "setting": "[4]; 7 days of treatment, 40 mg/kg, q.d.", "value": "slows down leukemia progression"},
      {"measurement": "leukemia progression, flow cytometry of hCD45+ cells in spleen", "setting": "[4]; 21 days of treatment, 25 mg/kg, b.i.d.", "value": "inhibits leukemia progression"}
    ]}
  ]
}
